Measurements as given in US10316017B2, “COT modulators and methods of use thereof” (Gilead Sciences, Inc., priority 2015, dated 2019).
Where two headings read alike, the source gives them in different places.

What was measured:
[1] = target: T1, human Cot catalytic domain (30-397 amino acids) (Homo sapiens, UniProt P41279); test: High Throughput Cot Biochemical Assay (KinEASE TR-FRET); settings: read-out: IC50 HTRF
T1 construct: Purified recombinant human Cot catalytic domain (30-397 amino acids) was purchased from Cama Biosciences; purchased Cama Biosciences (so in the source)
T1 sequence (P41279 30-397): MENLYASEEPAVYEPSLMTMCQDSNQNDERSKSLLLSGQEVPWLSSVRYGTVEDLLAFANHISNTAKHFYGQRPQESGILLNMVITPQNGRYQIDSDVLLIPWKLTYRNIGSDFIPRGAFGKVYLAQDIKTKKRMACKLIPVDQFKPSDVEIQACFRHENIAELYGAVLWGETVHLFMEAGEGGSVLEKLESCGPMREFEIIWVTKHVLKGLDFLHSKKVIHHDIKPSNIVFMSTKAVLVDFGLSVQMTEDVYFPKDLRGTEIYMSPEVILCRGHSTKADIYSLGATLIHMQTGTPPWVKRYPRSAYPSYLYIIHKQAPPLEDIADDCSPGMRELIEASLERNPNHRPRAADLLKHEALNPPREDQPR
Method in brief: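 Reaction of 5 nM recombinant human Cot catalytic domain (aa 30-397) with 1 μM STK3 peptide (XL665-labeled) and 400 μM ATP in 10 mM MOPS pH 7.0, 10 mM MgOAc, 1 mM DTT, 0.5 mg/mL BSA, 0.1% DMSO. Phosphopeptide detected by TR-FRET with europium anti-phospho antibody.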

[2] = test system: TNFα production in LPS-stimulated human monocytes; test: Cot Monocyte TNFα Cell Based Assay; settings: Homo sapiens, Monocyte, read-out: EC50 TNF
Method in brief: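 Cells at 5,000/well were pretreated with compound for 1 h at 37 °C (0.5% DMSO final), then stimulated with 50 pg/ml LPS for 4 h at 37 °C. Supernatant TNFα was measured by two-antibody TR-FRET after overnight room-temperature incubation; values are percent of control between unstimulated and stimulated wells.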

[3] = Cot KinEASE TR-FRET (HTRF) biochemical assay, 400 μM ATP
[4] = TNFα in LPS-stimulated human monocytes
[5] = Cot KinEASE TR-FRET, 400 μM ATP
[6] = LPS-stimulated human monocytes, TNFα TR-FRET
[7] = Cot biochemical HTRF (KinEASE TR-FRET) assay

IC50 [1, 3] [nM]	EC50 [2, 4] [nM]	IC50 [1, 5] [nM]	EC50 [2, 6] [nM]	IC50 [1, 7] [nM]	SMILES
		46	46		CC(C)(C)CNc1c(C#N)cnc2c(C#N)cc(N[C@@H](c3ccc(F)cc3)c3cn(C4(c5cccnc5)CC4)nn3)cc12 [Example 974, (S)-6-(((4-fluorophenyl)(1-(1-(pyridin-3-yl)cyclopropyl)-1H-1,2,3-triazol-4-yl)methyl)amino)-4-(neopentylamino) quinoline-3,8-dicarbonitrile]
		9	166		Cc1c(-c2cnn(C)c2)cccc1[C@H](Nc1cc(Cl)c2ncc(C#N)c(NCC(C)(C)C)c2c1)c1cn(C2(C(F)(F)F)CC2)nn1 [Example 1097, (S)-8-chloro-6-(((2-methyl-3-(1-methyl-1H-pyrazol-4-yl)phenyl) (1-(1-(trifluoromethyl)cyclopropyl)-1H-1,2,3-triazol-4-yl)methyl)amino)-4-(neopentylamino)quinoline-3-carbonitrile]
		2	26		Cc1c(-c2cnco2)cccc1[C@H](Nc1cc(C#N)c2ncc(C#N)c(NCC(C)(C)C)c2c1)c1cn(C2(C(F)F)CC2)nn1 [Example 1158, (S)-6-(((1-(1-(difluoromethyl)cyclopropyl)-1H-1,2,3-triazol-4-yl)(2-methyl-3-(oxazol-5-yl)phenyl)methyl)amino)-4-(neopentylamino)quinoline-3,8-dicarbonitrile]
		19	463		Cc1c(-c2cc[nH]n2)cccc1[C@H](Nc1cc(Cl)c2ncc(C#N)c(NCC(C)(C)C)c2c1)c1cn(C2(C(F)(F)F)CC2)nn1 [Example 1163, (S)-8-chloro-6-(((2-methyl-3-(1H-pyrazol-3-yl)phenyl)(1-(1-(trifluoromethyl)cyclopropyl)-1H-1,2,3-triazol-4-yl)methyl)amino)-4-(neopentylamino)quinoline-3-carbonitrile]
		53	250		CC(C)(C)CNc1c(C#N)cnc2c(Cl)cc(N[C@@H](c3ccc(F)cc3)c3cn(C4(C(F)(F)F)CCC4)nn3)cc12 [Example 998, (S)-8-chloro-6-(((4-fluorophenyl)(1-(1-(trifluoromethyl)cyclobutyl)-1H-1,2,3-triazol-4-yl)methyl)amino)-4-(neopentylamino)quinoline-3-carbonitrile]
		10	131		CC(C)(C)CNc1c(C#N)cnc2c(C#N)cc(N[C@H](c3cn(C4(C#N)CC4)nn3)c3ccccc3C(F)F)cc12 [Example 1025, (S)-6-(((1-(1-cyanocyclopropyl)-1H-1,2,3-triazol-4-yl)(2-(difluoromethyl)phenyl)methyl)amino)-4-(neopentylamino)quinoline-3,8-dicarbonitrile]
		4	27		Cc1c(-c2cn[nH]c2)cccc1[C@H](Nc1cc(C#N)c2ncc(C#N)c(NCC(C)(C)C)c2c1)c1cn(C2(C(F)(F)F)CC2)nn1 [Example 1133, (S)-6-(((2-methyl-3-(1H-pyrazol-4-yl)phenyl)(1-(1-(trifluoromethyl)cyclopropyl)-1H-1,2,3-triazol-4-yl)methyl)amino)-4-(neopentylamino)quinoline-3,8-dicarbonitrile]
		714	≥ 1000		[2H][C@](Nc1cc(Cl)c2ncc(C#N)c(NC3(C(F)F)CC3)c2c1)(c1ccc(F)cc1)c1cn(C2CC2)nn1 [Example 967]
		3	49		Cc1c(C#N)cccc1[C@H](Nc1cc(C#N)c2ncc(C#N)c(NCC(C)(C)C(F)(F)F)c2c1)c1cn(C2(C3CC3)CC2)nn1 [Example 1152, (S)-6-(((1-([1,1'-bi(cyclopropan)]-1-yl)-1H-1,2,3-triazol-4-yl)(3-cyano-2-methylphenyl)methyl)amino)-4-((3,3,3-trifluoro-2,2-dimethylpropyl)amino)quinoline-3,8-dicarbonitrile]

Second part, the molecule before the results:

SMILES	IC50 [1, 3] [nM]	EC50 [2, 4] [nM]	IC50 [1, 5] [nM]	EC50 [2, 6] [nM]	IC50 [1, 7] [nM]
N#Cc1cnc2c(Cl)cc(N[C@@H](c3ccc(F)cc3)c3cn(CC4(O)CC4)nn3)cc2c1Nc1cnc(F)c(F)c1 [Example 384, (S)-8-chloro-4-((5,6-difluoropyridin-3-yl)amino)-6-(((4-fluorophenyl)(1-((1-hydroxycyclopropyl)methyl)-1H-1,2,3-triazol-4-yl)methyl)amino)quinoline-3-carbonitrile]	8	832			
C[C@@H](Nc1c(C#N)cnc2c(Cl)cc(N[C@@H](c3ccccc3)c3cn(C4CCN(C(C)(C)C)CC4)nn3)cc12)c1cccc(F)c1 [Example 633, 6-(((S)-(1-(1-(tert-butyl)piperidin-4-yl)-1H-1,2,3-triazol-4-yl)(phenyl)methyl)amino)-8-chloro-4-(((R)-1-(3-fluorophenyl)ethyl)amino) quinoline-3-carbonitrile]		1580			10
CC(C)(C)N1CCC(n2cc([C@@H](Nc3cc(Cl)c4ncc(C#N)c(NS(=O)(=O)c5ccccc5)c4c3)c3ccccc3)nn2)CC1 [Example 520, (S)-N-(6-(((1-(1-(tert-butyl)piperidin-4-yl)-1H-1,2,3-triazol-4-yl)(phenyl)methyl)amino)-8-chloro-3-cyanoquinolin-4-yl)benzenesulfonamide]		> 10000			> 10000
N#CCC[C@@H](Nc1c(C#N)cnc2c(C#N)cc(N[C@@H](c3ccccc3)c3cn(C4CC4)nn3)cc12)c1ccccc1 [Example 949, 4-(((R)-3-cyano-1-phenylpropyl)amino)-6-(((S)-(1-cyclopropyl-1H-1,2,3-triazol-4-yl)(phenyl)methyl)amino) quinoline-3,8-dicarbonitrile]			1	19	
CC(C)(C)N1CCC(n2cc([C@@H](Nc3cc(Cl)c4ncc(C#N)c(Nc5ccc(F)c(Cl)c5)c4c3)c3cccc(C(=O)N4CC(F)(F)C4)c3)nn2)CC1 [Example 645, (S)-6-(((1-(1-(tert-butyl)piperidin-4-yl)-1H-1,2,3-triazol-4-yl)(3-(3,3-difluoroazetidine-1-carbonyl)phenyl)methyl)amino)-8-chloro-4-((3-chloro-4-fluorophenyl)amino)quinoline-3-carbonitrile]		41			2
[2H][C@](Nc1cc(Cl)c2ncc(C#N)c(NC(C)(C)C)c2c1)(c1ccc(F)cc1)c1cn(C2CC2)nn1 [Example 283, (S)-4-(tert-butylamino)-8-chloro-6-(((1-cyclopropyl-1H-1,2,3-triazol-4-yl)(4-fluorophenyl)methyl-d)amino)quinoline-3-carbonitrile]	90	764			
CN(C)C1CN(C(=O)c2cccc([C@H](Nc3cc(Cl)c4ncc(C#N)c(Nc5ccc(F)c(Cl)c5)c4c3)c3cn(C4CCN(C(C)(C)C)CC4)nn3)c2)C1 [Example 622, (S)-6-(((1-(1-(tert-butyl)piperidin-4-yl)-1H-1,2,3-triazol-4-yl)(3-(3-(dimethylamino)azetidine-1-carbonyl)phenyl)methyl)amino)-8-chloro-4-((3-chloro-4-fluorophenyl)amino)quinoline-3-carbonitrile]		851			5
[2H][C@](Nc1cc(Cl)c2ncc(C#N)c(NCC(C)(C)CC)c2c1)(c1ccc(F)cc1)c1cn(C2CC2)nn1 [Example 223, (S)-8-chloro-6-(((1-cyclopropyl-1H-1,2,3-triazol-4-yl)(4-fluorophenyl)methyl-d)amino)-4-((2,2-dimethylbutyl)amino)quinoline-3-carbonitrile]	5	157			
CC(C)(C)N1CCC(n2cc([C@@H](Nc3cc(Cl)c4ncc(C#N)c(Nc5ccc(F)c(Cl)c5)c4c3)c3cccc(C(N)=O)c3)nn2)CC1 [Example 673, (S)-3-((1-(1-(tert-butyl)piperidin-4-yl)-1H-1,2,3-triazol-4-yl)((8-chloro-4-((3-chloro-4-fluorophenyl)amino)-3-cyanoquinolin-6-yl)amino)methyl)benzamide]		1550			2
[2H][C@](Nc1cc(Cl)c2ncc(C#N)c(NCC(C)(C)C)c2c1)(c1cn(C2CC2(F)F)nn1)c1ccccc1Cl (some centres unmarked) [Example 99, 8-chloro-6-(((2-chlorophenyl) (1-(2,2-difluorocyclopropyl)-1H-1,2,3-triazol-4-yl)methyl-d)amino)-4-(neopentylamino) quinoline-3-carbonitrile]	19	454			
CC(C)n1cc([C@@H](Nc2cc(Cl)c3ncc(C#N)c(NC(CC#N)c4ccccc4)c3c2)c2ccc(F)cc2)nn1 (stereo partly drawn) [Example 362, 8-chloro-4-((2-cyano-1-phenylethyl)amino)-6-(((S)-(4-fluorophenyl)(1-isopropyl-1H-1,2,3-triazol-4-yl)methyl)amino)quinoline-3-carbonitrile]	5	83			
[2H][C@](Nc1cc(-c2ccncc2)c2ncc(C#N)c(NCC(C)(C)C)c2c1)(c1ccc(F)cc1)c1cn(C2CC2)nn1 [Example 140, (S)-6-(((1-cyclopropyl-1H-1,2,3-triazol-4-yl)(4-fluorophenyl)methyl-d)amino)-4-(neopentylamino)-8-(pyridin-4-yl)quinoline-3-carbonitrile]	1500	> 10000			
CC(=O)N(C)c1cccc([C@H](Nc2cc(C#N)c3ncc(C#N)c(NCC(C)(C)C)c3c2)c2cn(C3CC3)nn2)c1 [Compound 9]	2	172			
